Patent publication US7989650B2, “Therapeutic delivery of carbon monoxide to extracorporeal and isolated organs” (hemoCORM Limited, priority 2002, dated 2011)

Key:
[1] = tested on: deoxymyoglobin (deoxy-Mb); assay: Detection of CO release: conversion of deoxymyoglobin to carbonmonoxy myoglobin (MbCO), spectrophotometric; assay type: physicochemical
Protocol: The release of CO from CORM-3 or dCOMR-3 was assessed spectrophotometrically by measuring the conversion of deoxymyoglobin (deoxy-Mb) to carbonmonoxy myoglobin (MbCO) as previously described. The amount of MbCO formed was quantified by measuring the absorbance at 540 nm (extinction coefficient=[…]). Myoglobin solutions (66 μmol/L final concentration) were prepared fresh by dissolving the protein in 0.04 M phosphate buffer (pH 6.8). Sodium dithionite (0.1%) was added to convert myoglobin to deoxy-Mb prior to each reading.
When CORM-3 was prepared in distilled water and then added to the phosphate buffer solution containing Mb, a spectrum characteristic of MbCO was rapidly detected (FIG. 1B).

[2] = tested on: isolated hearts from male Lewis rats; assay: Ischaemia-reperfusion model in isolated Langendorff-perfused hearts; set-up: species or system rat
Protocol: Isolated hearts from male Lewis rats (300-350 g) were perfused according to the Langendorff technique as previously described by our group. Briefly, hearts were rapidly excised and perfused at constant flow (11 ml/min) with Krebs-Henseleit buffer (in mM: 119 NaCl, 4.7 KCl, 2.5 CaCl2, 1.66 MgSO4, 24.9 NaHCO3, 1.18 KH2PO4, 5.55 glucose, 2.00 sodium pyruvate, 0.5 EGTA) bubbled with 95% O2 and 5% CO2 at 37° C. (pH 7.4). Coronary perfusion pressure (CPP) was continuously measured by a pressure transducer (Grass Instruments, Astromed, RI, USA) connected to the aortic cannula. A latex balloon filled with saline was inserted into the left ventricle through the atrium and connected by a catheter to a second pressure transducer. The balloon was inflated to provide an initial end-diastolic pressure (EDP) of 10 mmHg. Both transducers were connected to a computer and data were acquired with BioPac™ instrumentation and analyzed with the accompanying AcqKnowledge™ software (BIOPAC System Inc.). Left ventricular developed pressure (LVDP), heart rate (HR), maximal contraction (+dP/dt) and relaxation (−dP/dt) rates, CPP and EDP were continuously recorded throughout the period of perfusion.
Isolated hearts were allowed to equilibrate at constant flow for 30 min and then made globally ischaemic by interrupting the buffer perfusion. Ischaemic hearts were kept at 37° C. in the water-jacketed chamber for 30 min and then reperfused for 60 min. All the hemodynamic parameters were continuously monitored throughout the experimental protocol as reported above. Krebs buffer was collected for 10 min from the pulmonary artery prior to the ischaemic event and in the last 10 min of reperfusion for creatine kinase (CK) analysis. At the end of reperfusion, hearts were stained to assess tissue viability using tetrazolium red. In additional experiments, hearts made ischaemic were infused for the first 10 min of reperfusion with CORM-3 or dCORM-3 (10 μM final concentration) via a syringe pump connected to the side arm of the aortic cannula. To assess a possible role of mitochondrial ATP-dependent potassium channels (KATP) in cardioprotection mediated by CORM-3, control hearts or hearts receiving CORM-3 were pre-treated for 10 min prior to ischaemia with […] (5-HD, 50 μM final concentration), a specific blocker of mitochondrial KATP.
Hearts from each experimental group (n=5) were stained for tissue viability at the end of the reperfusion period. Hearts were perfused through a side arm of the aortic cannula for 20 min with tetrazolium red (3% w/v) in Krebs Henseleit buffer at 37° C. The tetrazolium salt stains the viable myocardium brick red, whereas the infarcted tissue remains unstained and appears white. After staining, hearts were removed and stored in 2% formalin in the dark prior to analysis. Hearts were carefully cut into 2-mm thick sections, scanned into a computer using an AGFA Arcus® II scanner and the total ischaemic size was determined by volumetric analysis software (Scion Image®, Scion Corporation, MA, USA). Cardiac muscle damage was assessed by measuring the release of creatine kinase (CK) into the perfusate using a commercially available spectrophotometric assay kit (DG147-A) from Sigma Diagnostic (Poole, Dorset).

[3] = tested on: deoxymyoglobin (deoxy-Mb); details: cited from earlier work
[4] = tested on: pre-contracted aortic rings; details: cited from earlier work
[5] = dissolved in DMSO; cited from earlier work
[6] = 10 μM infused for first 10 min of reperfusion, 30 min ischaemia, 60 min reperfusion
[7] = at the end of reperfusion, 10 μM infused for first 10 min of reperfusion
[8] = before ischaemia, hearts later reperfused with CORM-3

NCC(=O)O.[CH+]=O.[CH+]=O.[CH+]=O.[Cl][Ru] [CORM-3, tricarbonylchloro-(glycinato)ruthenium(II)]
CO liberated per mole of compound ([1]; CORM-3 prepared in distilled water, added to phosphate buffer containing Mb): 1 mol
formation of MbCO ([1]; addition of 40 μM CORM-3 prepared in distilled water, myoglobin 66 μmol/L, 0.04 M phosphate buffer pH 6.8): 36.4 ± 0.9 µM
ability to liberate CO (conversion of Mb to MbCO) after standing in water ([1]; dissolved in water, left 24 h at room temperature): retained its full ability to liberate CO
stability / ability to release CO in Krebs-Henseleit buffer ([1]; prepared in Krebs-Henseleit buffer, over time): gradually decomposed over time and lost its ability to release CO
maximal rate of contraction (+dP/dt), after ischaemia-reperfusion [2, 6]: 3726±542 mmHg/s
maximal rate of relaxation (−dP/dt), after ischaemia-reperfusion [2, 6]: 2207±258 mmHg/s
increase in left ventricular-developed pressure (LVDP) compared to baseline ([2]; after 60 min reperfusion, 10 μM infused for first 10 min of reperfusion, 30 min global ischaemia): 44%
increase in coronary perfusion pressure (CPP) [2, 7]: 13±2.2 mmHg
increase in end diastolic pressure (EDP) [2, 7]: 3±1.8 mmHg
maximal rate of contraction (+dP/dt), baseline [2, 8]: 2099±99 mmHg/s
maximal rate of relaxation (−dP/dt), baseline [2, 8]: 1432±149 mmHg/s
creatine kinase (CK) activity in buffer, before ischaemia ([2]; buffer collected 10 min prior to ischaemia, hearts later reperfused with CORM-3): 6.5±2.3 U/L
infarct size (tetrazolium red staining) ([2]; end of reperfusion, 10 μM infused for first 10 min of reperfusion): 2.3±0.6%
protective effects on myocardial contractility (LVDP, +dP/dt, −dP/dt) and on EDP and CPP increases, with 5-HD pre-treatment ([2]; hearts pre-treated 10 min prior to ischaemia with 5-HD 50 μM, CORM-3 10 μM at reperfusion): totally abolished
creatine kinase (CK) activity in buffer, after reperfusion ([2]; last 10 min of reperfusion, 10 μM infused for first 10 min of reperfusion): 19.9±5.3 U/L

[Fe(SPh)2(2,2′-bipyridine)(CO)2]
release of CO to myoglobin in solution [3]: not to release CO to myoglobin in solution
dilatation of pre-contracted aortic rings [4]: capable of promoting dilatation of pre-contracted aortic rings

[C-]#[O+].[C-]#[O+].[C-]#[O+].[C-]#[O+].[C-]#[O+].[C-]#[O+].[Cl][Ru][Cl].[Cl][Ru][Cl] [[Ru(CO)3Cl2]2, Tricarbonyldichloro ruthenium(II) dimer]
CO liberation on dissolution [5]: CO is liberated into solution
